Measured values taken from paper PMC11245370, “3-Position Biaryl Endochin-like Quinolones with Enhanced Antimalarial Performance” (ACS Infectious Diseases, 2024).
“And” between values parts separate entries of the source, which are not always exact repeats. Identical values can stand only once. Like-named read-outs stand apart in the source and are kept apart here.

How the values were obtained:
[1] = target: T1, human liver cytochrome bc1 complex (Homo sapiens, UniProt P00156); assay: Human cytochrome bc1 assay (liver mitochondrial preparation)
Method: All use of human tissue was approved by the OHSU IRB. Approximately 10 g of human liver tissue was obtained intraoperatively and placed in ice-cold PBS containing 5 mM glucose. [Note: The specimen was obtained from grossly normal tissue that was resected around the margins of a tumor as part of the standard surgical treatment for hepatic tumors.] Liver was homogenized using a razor blade followed by a Dounce homogenizer. HALT Protease Inhibitor Cocktail (Pierce) was added per the manufacturer’s instructions. A crude mitochondrial fraction was prepared by differential centrifugation as described in Renault et al.[35] The final pellet was resuspended in storage buffer (50 mM tricine, 100 mM KCl, 2 mM NaN, 2.0% dodecyl-beta-D-maltoside, 30% glycerol, pH 8.0). Aliquots of this mitochondrial preparation were frozen in a dry ice–ethanol bath and stored at −80 °C until use.
Two microliters of mitochondrial preparation was resuspended in the assay buffer (50 mM tricine, 100 mM KCl, 2 mM NaN3, 0.1% dodecyl-beta-D-maltoside). […] Antimycin A was dissolved in ethanol as a 1 mM stock. Decylubiquinone was reduced to decylubiquinol with an excess of NaBH4, and the excess NaBH4 was subsequently quenched with hydrochloric acid. […] The rate of the nonenzymatic reaction of cytochrome c and decylubiquinol was measured separately in the absence of mitochondrial preparation and found to be insignificant. […]

[2] = tested on: P. yoelii blood-stage infection; assay: Single-dose cure of blood-stage murine malaria; type: in vivo, Plasmodium yoelii; settings: for blood stage in vivo efficacy, single dose cure: lowest single oral dose curing all four mice, day 30
Method: (§1) On day 5, a drop of blood was taken from the tail, and a blood smear was prepared, fixed with methanol, and stained with Giemsa. The operator then examined the stained smear microscopically to determine percent parasitemia. […] In this model, animals were inoculated exactly as for the 4 day test on day 0; however, drug was administered only on day 1, whereas smears were made on day 5 and again weekly thereafter for animals that remained aparasitemic. Animals that remained aparasitemic on day 30 were scored as cures.
The effectiveness of selected 3-biaryl ELQs and prodrugs was assessed vs the blood-stage infection for single-dose cures. Mice were infected iv with 3.5 × 10^4P. yoelii infected RBCs as described for the 4 day test above. Drug administration occurred on the day after inoculation (day 1). Test agents were dissolved in PEG-400 and administered ig once. On the fifth day, blood films were prepared, and % parasitemia was assessed. Animals remaining parasite-free for 30 days after drug administration were considered cured. The initial dosing range was 0.25, 0.5, 1, 3, and 10 mg/kg, including a control. Experiments were performed with four mice per group to ensure statistical accuracy. The reported parameter for these studies is the lowest single dose that provides a cure to all four animals in the group.

[3] = tested on: P. falciparum drug-sensitive D6 strain; assay: SYBR Green I antiplasmodial assay, D6 strain; type: cell-based; settings: Plasmodium falciparum, read-out: P. falciparum IC50 values, D6
Method: (§2) All of this information is stored in a database with information relating to chemical structure, physical chemical properties, cross resistance patterns, mammalian cell cytotoxicity, enzyme inhibitor profiles, and synthesis details. Pharmacological data and in vivo efficacy data are also stored in the database for molecules of particular interest. […] We synthesized the compound in an initial batch size of about 800 mg as described above. […] Fluorescence readings were captured with a fluorescence plate reader and processed by nonlinear regression analysis using the GraphPad Prism software to provide IC50 values for each determination. Stock solutions were freshly prepared daily in DMSO in glass vials.
(§3) Laboratory strains of P. falciparum were cultured in human erythrocytes by standard methods. The parasites were grown in culture medium with fresh human erythrocytes maintained at 2% hematocrit at 37 °C in low-oxygen conditions (5% O2, 5% CO2, 90% N2). […] Cultures were maintained at less than 10% parasitemia by transfer of infected cells to fresh erythrocytes and culture medium every 3 or 4 days.
(§4) SYBR green I assay. In vitro antiplasmodial activity was assessed using a published SYBR Green I fluorescence-based method.[20] The drugs were added to 96-well plates using twofold serial dilutions in complete medium. […] Asynchronous P. falciparum parasites were diluted with uninfected erythrocytes and added to the wells to give a final culture volume of 100 μL at 2% hematocrit and 0.2% parasitemia. […] The parasites were then lysed by adding 100 μL of SYBR green I lysis buffer containing 0.2 μL/ml SYBR green I dye (10,000×) in 20 mM Tris (pH 7.5), 5 mM EDTA, 0.008% (wt/vol) saponin, and 0.08% (v/v) Triton X-100. The plates were incubated at room temperature for an hour in the dark. […] If the IC50 value fell outside of the initially tested range, then the range was adjusted up or down, and the assay was repeated twice.

[4] = tested on: P. falciparum ELQ-300-resistant D1 clone; assay: microbe, parasite or virus in culture; type: cell-based; settings: Plasmodium falciparum, 72 h, read-out: P. falciparum IC50 values, D1
[5] = tested on: P. falciparum atovaquone-resistant clinical isolate Tm90-C2B; assay: SYBR Green I antiplasmodial assay, Tm90-C2B; type: cell-based; settings: Plasmodium falciparum, read-out: P. falciparum IC50 values, Tm90-C2B
Method: as §2, §3, §4

[6] = tested on: P. yoelii blood-stage infection; settings: for blood stage in vivo efficacy, 4 day Peters test results, NRD (nonrecrudescence dose) / blood stage in vivo efficacy, 4 day Peters test results, ED50 / blood stage in vivo efficacy, 4 day Peters test results, ED90: mice; for blood stage in vivo efficacy, 4 day Peters test results, NRD (nonrecrudescence dose): oral gavage days 1-4, followed to day 30; for blood stage in vivo efficacy, 4 day Peters test results, ED50 / blood stage in vivo efficacy, 4 day Peters test results, ED90: oral gavage days 1-4, parasitemia day 5, prodrugs dosed on molar equivalency to parent
Method: as §1
The P. yoelii 4 day test monitors suppression of patent infection in female CF1 mice. The test began with the inoculation (iv) of parasitized erythrocytes (3.5 × 10^4P. yoelli) (from a donor animal) on the first day of the experiment (D0). […] Initially, the 3-biaryl-ELQs were tested at doses of 0.0025, 0.005, 0.01, 0.03, 0.1, 0.3, 1.0, and 10 mg/kg/day, including a vehicle-only (PEG400) control. After completion of drug treatment, a blood sample was collected (by pricking the tail vein) for determination of parasite burden beginning on the day after the final dose (D5). Percent parasitemia was assessed by direct microscopic analysis of Giemsa-stained blood smears. […] Animals with observable parasitemia following the experiment were euthanized; animals cleared of parasites from the bloodstream were observed daily with assessment of parasitemia performed weekly until day 30, at which point the animals were scored as cured of infection. […] Nonlinear regression analysis was used for objective determination of ED50’s and ED90’s from the accumulated data as well as the nonrecrudescence dose (NRD). The 4 day test protocol was reviewed and approved by the local IACUC board at the Portland VA Medical Center. Experiments were performed with four mice per group to ensure statistical accuracy.

[7] = target: T1, human liver cytochrome bc1 complex; design: method as in Nilsen et al., 2013; settings: ref Nilsen et al., 2013; cited from earlier work
[8] = tested on: P. falciparum multidrug-resistant Dd2 strain; assay: microbe, parasite or virus in culture; type: cell-based; settings: Plasmodium falciparum, DD2, 72 h, read-out: P. falciparum IC50 values, Dd2
Method: as §2, §3, §4

[9] = HepG2 cytotoxicity / mitochondrial toxicity (TiterGlo ATP, galactose medium); settings: human
Method: HepG2 was routinely cultured in DMEM containing 10% fetal calf serum and 100 IU/mL penicillin and 100 μg/mL streptomycin (complete medium). For studies to investigate the potential for mitochondrial toxicity by selected 3-biaryl-ELQs, the medium contained galactose rather than glucose to force the cells to produce ATP through oxidative phosphorylation, which in turn makes them sensitive to mitochondrial toxicants.[36] […] After this period, the culture medium was removed, and the cells were shifted to galactose-containing medium with test drugs at concentrations ranging from 0 to 10 μM. Drug dilutions were prepared from DMSO stocks into galactose-containing medium. […] After incubation, the contents of each well were removed, and 25 μL of TiterGlo II reagent mix containing luciferase, detergent, and luciferin was added to each well along with 25 μL of culture medium. […] At this point, the plates were read on a luminometer (SpectraMax iD3 iD5Multi-Mode Microplate Reader), and the data were processed to yield the percent decrease in ATP production relative to no-drug control values. These values reflect the potential damage caused by mitochondrial toxicants due to reduced intracellular ATP levels caused by interference with the human mitochondrial electron transport chain. Assays were set up in triplicate.

[10] = Metabolic stability in liver microsomes, mouse; type: in vitro ADME; settings: pooled mouse liver microsomes, pH 7.4; mouse liver microsomes 0.5 mg/mL, NADPH, 37 °C, 45 min, 1 μM
Method: (§5) […]. Samples were taken over the interval of 45 min and analyzed by LC–MS/MS for the presence of test compound. Ketanserin served as an internal standard for the metabolic rate of a drug with known intermediate stability. […].
(§6) The drug was incubated at 37 °C and 1 μM concentration in murine liver microsomes (Corning) for 45 min at a protein concentration of 0.5 mg/mL in potassium phosphate buffer at pH 7.4 containing 1.0 mM EDTA. The metabolic reaction was initiated by addition of NADPH and quenched with ice-cold acetonitrile at 0, 5, 15, 25, and 45 min.

[11] = Pharmacokinetics after single dose of ELQ-598; type: in vivo; settings: for k el / Tmax / AUC(0-inf) / Cmax / half-life: mouse plasma; for bioavailability: read-out: F (oral bioavailability); for Vd / CL/F / Vdarea/F / AUCratio (molar AUC ELQ-598/AUC ELQ-596): mouse; for Vd: read-out: Vdss
Method: Animals had free access to food and water during the study. Following drug administration, the animals were manually restrained at the designated time points, and 100 μL of blood was withdrawn from the facial vein for semiserial sampling into heparinized tubes. Blood samples were placed on ice and centrifuged (2000g, 5 min, 4 °C) to obtain plasma. The plasma was mixed with 10% formic acid (FA) in water [plasma/10% FA (v/v = 10:1)]. […] At the outset of the study, 18 animals were randomly separated into two different groups (po and iv) of nine animals each. Blood samples were taken from three animals at each time point such that the same group of the animals was sampled at […] throughout the experiment for both po and iv arms. […] Dichlofenac was used as an internal standard.
MW is the molecular weight. The terminal elimination rate constant kel was estimated by linear least-squares regression analysis of the terminal log-linear portion of the plasma concentration–time curves by the software.

[12] = Metabolic stability in liver microsomes, rat; type: in vitro ADME; settings: rat, pH 7.4
[13] = Metabolic stability in liver microsomes, human; type: in vitro ADME; settings: human, pH 7.4
Method: as §5, §6

[14] = tested on: P. yoelii sporozoites (liver stage); assay: Causal prophylaxis, sporozoite challenge in mice; settings: 1.0 mg/kg single oral dose 1 h after 10,000 P. yoelii sporozoites iv; followed 30 days
Method: For this study, mice were inoculated with 10,000 P. yoelii sporozoites via tail vein injections, and drug was administered by gavage an hour later and only once. We monitored for the presence of blood-stage parasites as a measure of liver-stage infection.
Mice were inoculated with 10,000 sporozoites via tail vein injection of CF1 mice treated with or without drug (dissolved in PEG400) 1 h after inoculation. […] Additional monitoring for blood-stage infection was continued for a 30 day period to confirm true causal prophylaxis against P. yoelii challenge. […] Testing involved the use of four animals per group for statistical accuracy. […] A minimum of 5000 red blood cells were examined to establish blood-stage infection. Blood smears were fixed with methanol, stained with Giemsa, and viewed under oil immersion at 1000× magnification under standard light microscopy.

[15] = male, CD1, mouse, plasma, po, 10 mg/kg, single ELQ-598 dose 10 mg/kg PO (PEG400), read-out: Tmax
[16] = male, CD1, mouse, plasma, po, 10 mg/kg
[17] = male, CD1, plasma, single ELQ-598 dose 0.3 mg/kg IV
[18] = male, CD1, plasma, single ELQ-598 dose 10 mg/kg PO, read-out: CL/F (converted)
[19] = male, CD1, single ELQ-598 dose 0.3 mg/kg IV
[20] = male, CD1, single ELQ-598 dose 0.3 mg/kg IV, elimination
[21] = male, CD1, single ELQ-598 dose 10 mg/kg PO
[22] = male, CD1, single ELQ-598 dose 10 mg/kg PO (PEG400)
[23] = male, CD1, single ELQ-598 dose 10 mg/kg PO, apparent elimination
[24] = single ELQ-598 dose 0.3 mg/kg IV
[25] = single ELQ-598 dose 10 mg/kg PO

SMILES | EC50 [1] | blood stage in vivo efficacy, single dose cure [2] | IC50 [4] | blood stage in vivo efficacy, 4 day Peters test results, NRD (nonrecrudescence dose) [6] | blood stage in vivo efficacy, 4 day Peters test results, ED50 [6] | IC50 [8] | IC50 ([3]; D6, 72 h) | IC50 ([5]; TM90, 72 h) | Tmax [11, 15] | bioavailability [11, 16] | Vd [11, 17] | CL/F [11, 18] | AUC(0-inf) [11, 19] | half-life [11, 20] | AUC(0-inf) [11, 21] | Cmax [11, 22] | half-life [11, 23] | CL/F [11, 24] | Vdarea/F [11, 24] | Vdarea/F [11, 25] | further results
CCCCCC[C@H]1C(=O)O[C@H](C)[C@H](NC(=O)c2cccc(NC=O)c2O)C(=O)O[C@@H](C)[C@@H]1OC(=O)CC(C)C [Antimycin A, reference compound] | < 156 nM | – | – | – | – | – | – | – | – | – | – | – | – | – | – | – | – | – | – | – | –
O=C1C(O)=C([C@H]2CC[C@H](c3ccc(Cl)cc3)CC2)C(=O)c2ccccc21 [Atovaquone, reference compound] | – | 10 mg/kg/day | 0.4 nM | 10 mg/kg/day | 0.1 mg/kg/day | 0.4 nM | – | – | – | – | – | – | – | – | – | – | – | – | – | – | IC50 ([3]; D6, 72 h, SYBR Green, mean (95% confidence interval of fit)): 0.08 nM; IC50 ([5]; TM90, 72 h, SYBR Green, mean (95% confidence interval of fit)): > 1000 nM; EC50 [7]: 460 nM
COc1cc2[nH]c(C)c(-c3ccc(-c4ccc(OC(F)(F)F)cc4)cc3)c(=O)c2cc1Cl [ELQ-596, 6-Chloro-7-methoxy-2-methyl-3-(4′-(trifluoromethoxy)-[1,1′-biphenyl]-4-yl)quinolin-4(1H)-one] | > 10000 nM | – | – | 0.3 mg/kg/day | 0.01 mg/kg/day | 1.6 nM | 1.4 nM | 0.7 nM | 4 h | 73% | 0.78 L/kg | 0.283 mL/min/kg | 12200 ng·h/mL | 27.4 h | 484000 ng·h/mL | 6680 ng/mL | 45.7 h | 0.333 mL/min/kg | 0.81 L/kg | 1.11 L/kg | EC50 at 24 h [9]: > 10000 nM; IC50 at 24 h [9]: > 10000 nM; half-life at 1 μM [10]: > 66.7 h; k el ([11]; male, CD1, in vivo, single ELQ-598 dose 0.3 mg/kg IV): 6.94e-06 s⁻¹; k el ([11]; male, CD1, in vivo, single ELQ-598 dose 10 mg/kg PO (PEG400)): 4.17e-06 s⁻¹; Tmax ([11]; male, CD1, mouse, plasma, iv, 0.3 mg/kg, single ELQ-598 dose 0.3 mg/kg IV, read-out: Tmax): 4 h; Cmax [11, 19]: 303 ng/mL; Cmax [11, 21]: 14.5 µM; Tmax ([11]; single ELQ-598 dose 0.3 mg/kg IV, 0.3 mg/kg): 2 h; blood stage in vivo efficacy, 4 day Peters test results, ED90 [6]: 0.021 mg/kg/day; half-life at 1 μM [12]: > 66.7 h; half-life at 1 μM [13]: > 66.7 h
CCOC(=O)OCOc1c(-c2ccc(-c3ccc(OC(F)(F)F)cc3)cc2)c(C)nc2cc(OC)c(Cl)cc12 [ELQ-598, (((6-Chloro-7-methoxy-2-methyl-3-(4′-(trifluoromethoxy)-[1,1′-biphenyl]-4-yl)quinolin-4-yl)oxy)methylethyl carbonate] | – | 0.3 mg/kg/day | 734 nM | 0.12 mg/kg/day | 0.005 mg/kg/day | 4.4 nM | 1.5 nM | 0.8 nM | ≤ 2 h | 0.26% | 0.09 L/kg | 398 mL/min/kg | 757 ng·h/mL | 0.74 h | 419 ng·h/mL | 79.4 ng/mL | 5 h | 6.67 mL/min/kg | 0.42 L/kg | 173.5 L/kg | animals protected by single dose ([2]; 0.25 mg/kg single oral dose, four mice): two of four; effectiveness as single dose cure agent compared to ELQ-331 ([2]; blood-stage P. yoelii in mice): ~10 times; lowest fully protective single dose cure ([2]; single oral dose day 1, aparasitemic day 30, four mice, parent-drug equivalent): 0.3 mg/kg; IC50 at 24 h ([9]; HepG2 cells): > 10000 nM; liver stage in vivo, # mice protected/total [14]: complete protection and 4/4; k el [11, 19]: 0.000258 s⁻¹; k el [11, 22]: 3.89e-05 s⁻¹; AUCratio (molar AUC ELQ-598/AUC ELQ-596) [11, 24]: 5.1%; AUCratio (molar AUC ELQ-598/AUC ELQ-596) [11, 25]: 0.07%; appearance, behavioral, or weight changes after dosing ([6]; in vivo): no appearance, behavioral, or weight changes observed; blood stage in vivo efficacy, 4 day Peters test results, ED90 [6]: 0.0065 mg/kg/day
